Measurements as given in ChEMBL document CHEMBL4052672, “Discovery of β-d-2'-deoxy-2'-dichlorouridine nucleotide prodrugs as potent inhibitors of hepatitis C virus replication” (Bioorg Med Chem Lett, 2017).
Activity calls are given as the source filed them. No cut-off for these calls is given here.

Experiments:
[1] = Stability in human intestinal […] S9 fraction assessed as half life at 2 uM by LC-MS/MS method; assay type: ADME
Hepatitis C virus [2] = experiment: Antiviral activity against HCV genotype 1b subgenomic replicon infected in human HuH7 Luc-neo cells assessed as inhibition of viral replication by luciferase reporter gene assay; assay type: functional, cell-based, Hepacivirus hominis; settings: Huh-7
[3] = Stability in human liver S9 fraction assessed as half life at 2 uM by LC-MS/MS method; assay type: ADME, tissue-based
[4] = Cytotoxic activity against human HuH7 cells incubated for 6 days by CCK8 assay; assay type: cell-based, Huh-7
[5] = Stability in human whole blood assessed as half life at 2 uM by LC-MS/MS method; assay type: ADME
[6] = (§1) Inhibition of HCV genotype 1b NS5B Cdelta21 RNA dependent RNA polymerase using cIRES, GTP, UTP and CTP incubated for 30 mins in presence of [3H]-ATP/ATP mixture by scintillation counting method; set-up: species or system Hepatitis C virus subtype 1b
Hepatitis C virus [7] = experiment: Antiviral activity against HCV genotype 1b subgenomic replicon expressing NS5B RNA dependent RNA polymerase S282T mutant infected in human HuH7 Luc-neo cells assessed as inhibition of viral replication by luciferase reporter gene assay relative to wild type HCV genotype 1b; assay type: functional, Hepacivirus hominis
[8] = Drug metabolism in human hepatocytes assessed as ((2R,3R,5R)-4,4-dichloro-5-(2,4-dioxo-3,4-dihydropyrimidin-1(2H)-yl)-3-hydroxytetrahydrofuran-2-yl)methyl tetrahydrogen triphosphate formation at 10 uM after 1 to 24 hrs by LC-MS/MS method; assay type: ADME, cell-based, Hepatocyte
Canis familiaris [9] = experiment: Drug metabolism in dog liver assessed as ((2R,3R,5R)-5-(4-amino-2-oxopyrimidin-1(2H)-yl)-4,4-dichloro-3-hydroxytetrahydrofuran-2-yl)methyl tetrahydrogen triphosphate formation at 50 mg/kg/day, po for 4 days; assay type: ADME, organism-based, Canis lupus familiaris; settings: in vivo, 96 h
[10] = Drug metabolism in human hepatocytes assessed as ((2R,3R,5R)-5-(4-amino-2-oxopyrimidin-1(2H)-yl)-4,4-dichloro-3-hydroxytetrahydrofuran-2-yl)methyl tetrahydrogen triphosphate formation at 10 uM after 1 to 24 hrs by LC-MS/MS method; assay type: ADME, cell-based, Hepatocyte
Hepatitis C virus [11] = experiment: Antiviral activity against HCV genotype 3a subgenomic replicon infected in human Huh7-Lunet cells assessed as inhibition of viral replication by luciferase reporter gene assay; assay type: functional, cell-based, Hepacivirus hominis; settings: Huh-7
Hepatitis C virus [12] = experiment: Antiviral activity against HCV genotype 1a subgenomic replicon infected in human Huh7-Lunet cells assessed as inhibition of viral replication by luciferase reporter gene assay; assay type: functional, cell-based, Hepacivirus hominis; settings: subtype 1a, Huh-7
Hepatitis C virus [13] = experiment: Antiviral activity against HCV genotype 6a subgenomic replicon infected in human Huh7-Lunet cells assessed as inhibition of viral replication by luciferase reporter gene assay; assay type: functional, cell-based, Hepacivirus hominis; settings: Huh-7
Canis familiaris [14] = experiment: Drug metabolism in dog liver assessed as ((2R,3R,5R)-5-(4-amino-2-oxopyrimidin-1(2H)-yl)-4,4-dichloro-3-hydroxytetrahydrofuran-2-yl)methyl tetrahydrogen triphosphate formation at 50 mg/kg/day, po for 4 days measured at 4 hrs on day 4; assay type: ADME, organism-based, Canis lupus familiaris; settings: in vivo
Hepatitis C virus [15] = experiment: Antiviral activity against HCV genotype 5a subgenomic replicon infected in human Huh7-Lunet cells assessed as inhibition of viral replication by luciferase reporter gene assay; assay type: functional, cell-based, Hepacivirus hominis; settings: Huh-7
Canis familiaris [16] = experiment: Drug metabolism in dog liver assessed as ((2R,3R,5R)-4,4-dichloro-5-(2,4-dioxo-3,4-dihydropyrimidin-1(2H)-yl)-3-hydroxytetrahydrofuran-2-yl)methyl tetrahydrogen triphosphate formation at 50 mg/kg/day, po for 4 days measured at 4 hrs on day 4; assay type: ADME, organism-based, Canis lupus familiaris; settings: in vivo
Hepatitis C virus [17] = experiment: Antiviral activity against HCV genotype 2a subgenomic replicon; assay type: functional, Hepacivirus hominis
Hepatitis C virus [18] = experiment: Antiviral activity against HCV genotype 4a subgenomic replicon infected in human Huh7-Lunet cells assessed as inhibition of viral replication by luciferase reporter gene assay; assay type: functional, cell-based, Hepacivirus hominis; settings: Huh-7
[19] = Drug metabolism in human hepatocytes assessed as cytidine triphosphate metabolite formation at 10 uM after 1 to 24 hrs by LC-MS/MS method; assay type: ADME, cell-based, Hepatocyte
Hepatitis C virus [20] = experiment: Antiviral activity against HCV genotype 1b subgenomic replicon; assay type: functional, Hepacivirus hominis
[21] = Drug metabolism in human hepatocytes assessed as ((2R,3R,4R,5R)-5-(2,4-dioxo-3,4-dihydropyrimidin-1(2H)-yl)-4-fluoro-3-hydroxy-4-methyltetrahydrofuran-2-yl)methyl tetrahydrogen triphosphate formation at 10 uM after 1 to 24 hrs by LC-MS/MS method; assay type: ADME, cell-based, Hepatocyte
[22] = Inhibition of HCV genotype 1b NS5B RNA dependent RNA polymerase; set-up: species or system Hepatitis C virus subtype 1b
[23] = test system: Hepatitis C virus subtype 1b; experiment: as §1

## CC[C@@H](C)OC(=O)[C@H](C)NP(=O)(OC[C@H]1O[C@@H](n2ccc(=O)[nH]c2=O)C(Cl)(Cl)[C@@H]1O)Oc1ccccc1 (single isomer, unassigned)
[1]
  half-life at 2 µM: 140 min
Hepatitis C virus [2]
  EC50: 0.11 µM
[3]
  half-life at 2 µM: 8 min
[4]
  CC50 at 144 h: > 100 µM
[5]
  half-life at 2 µM: 11 min

## Nc1ccn([C@@H]2O[C@H](COP(=O)(O)OP(=O)(O)OP(=O)(O)O)[C@@H](O)C2(Cl)Cl)c(=O)n1
[6]
  Ki: 0.2 µM

## C[C@H](NP(=O)(OC[C@H]1O[C@@H](n2ccc(=O)[nH]c2=O)C(Cl)(Cl)[C@@H]1O)Oc1ccccc1)C(=O)OC1CCCCC1 (single isomer, unassigned)
[1]
  half-life at 2 µM: 70 min
Hepatitis C virus [2]
  EC50: 0.16 µM
[3]
  half-life at 2 µM: 3 min
[4]
  CC50 at 144 h: > 100 µM
[5]
  half-life at 2 µM: 20 min

## CC(C)OC(=O)[C@H](C)NP(=O)(OC[C@H]1O[C@@H](n2ccc(=O)[nH]c2=O)C(Cl)(Cl)[C@@H]1O)Oc1ccc(C2(C)CC2)cc1 (single isomer, unassigned)
[1]
  half-life at 2 µM: 60 min
Hepatitis C virus [2]
  EC50: 0.34 µM
[3]
  half-life at 2 µM: 10 min
[4]
  CC50 at 144 h: 62 µM
[5]
  half-life at 2 µM: 8 min

## CC[C@H](C)OC(=O)[C@H](C)NP(=O)(OC[C@H]1O[C@@H](n2ccc(=O)[nH]c2=O)C(Cl)(Cl)[C@@H]1O)Oc1ccccc1 (single isomer, unassigned)
[1]
  half-life at 2 µM: 140 min
Hepatitis C virus [2]
  EC50: 0.083 µM
[3]
  half-life at 2 µM: 7 min
[4]
  CC50 at 144 h: > 100 µM
[5]
  half-life at 2 µM: 11 min

## CC(C)OC(=O)[C@H](C)N[P@@](=O)(OC[C@H]1O[C@@H](n2ccc(=O)[nH]c2=O)C(Cl)(Cl)[C@@H]1O)Oc1ccccc1
[1]
  half-life at 2 µM: 1380 min
Hepatitis C virus [7]
  Ratio EC50: 4.1
[8]
  Drug metabolism: Metabolite_Detected
Canis familiaris [9]
  Drug metabolism: Metabolite_Detected
Hepatitis C virus [2]
  EC50: 0.056 µM
[3]
  half-life at 2 µM: 43 min
[10]
  Drug metabolism: Metabolite_Detected
Hepatitis C virus [11]
  EC50: 0.068 µM
[4]
  CC50 at 144 h: > 100 µM
Hepatitis C virus [12]
  EC50: 0.07 µM
Hepatitis C virus [13]
  EC50: 0.069 µM
Canis familiaris [14]
  Drug metabolism: 0.93 µM
Hepatitis C virus [15]
  EC50: 0.053 µM
[5]
  half-life at 2 µM: 27 min
Canis familiaris [16]
  Drug metabolism: 3.5 µM
Hepatitis C virus [17]
  EC50: 0.018 µM
Hepatitis C virus [18]
  EC50: 0.066 µM

## CC(C)OC(=O)[C@H](C)N[P@@](=O)(OC[C@H]1O[C@@H](n2ccc(=O)[nH]c2=O)[C@](C)(F)[C@@H]1O)Oc1ccccc1
Hepatitis C virus [7]
  Ratio EC50: 7.8
[19]
  Drug metabolism: Metabolite_Detected
Hepatitis C virus [20]
  EC50: 0.092 µM
Hepatitis C virus [11]
  EC50: 0.13 µM
Hepatitis C virus [12]
  EC50: 0.17 µM
Hepatitis C virus [13]
  EC50: 0.18 µM
Hepatitis C virus [15]
  EC50: 0.12 µM
[21]
  Drug metabolism: Metabolite_Detected
Hepatitis C virus [17]
  EC50: 0.05 µM
Hepatitis C virus [18]
  EC50: 0.23 µM

## O=c1ccn([C@@H]2O[C@H](COP(=O)(O)OP(=O)(O)OP(=O)(O)O)[C@@H](O)C2(F)F)c(=O)[nH]1
[22]
  IC50: > 100 µM

## CC(C)OC(=O)[C@H](C)NP(=O)(OC[C@H]1O[C@@H](n2ccc(=O)[nH]c2=O)C(F)(F)[C@@H]1O)Oc1ccccc1 (single isomer, unassigned)
Hepatitis C virus [20]
  EC50: 0.97 µM

## O=c1ccn([C@@H]2O[C@H](COP(=O)(O)OP(=O)(O)OP(=O)(O)O)[C@@H](O)C2(Cl)Cl)c(=O)[nH]1
[23]
  inhibition: Active

## C[C@@]1(F)[C@H](O)[C@@H](COP(=O)(O)OP(=O)(O)OP(=O)(O)O)O[C@H]1n1ccc(=O)[nH]c1=O [GS-461203]
[22]
  Ki: 0.49 µM

## O=c1ccn([C@@H]2O[C@H](CO)[C@@H](O)C2(Cl)Cl)c(=O)[nH]1
Hepatitis C virus [2]
  EC50: > 50 µM
[4]
  CC50 at 144 h: > 100 µM

## CC(C)OC(=O)[C@H](C)NP(=O)(OC[C@H]1O[C@@H](n2ccc(=O)[nH]c2=O)C(Cl)(Cl)[C@@H]1O)Oc1cccc(C2CCC2)c1 (single isomer, unassigned)
[1]
  half-life at 2 µM: 20 min
Hepatitis C virus [2]
  EC50: 0.22 µM
[3]
  half-life at 2 µM: 3 min
[4]
  CC50 at 144 h: > 100 µM
[5]
  half-life at 2 µM: 8 min

## CC(C)OC(=O)[C@H](C)NP(=O)(OC[C@H]1O[C@@H](n2ccc(=O)[nH]c2=O)C(Cl)(Cl)[C@@H]1O)Oc1cccc(C2(C)CC2)c1 (single isomer, unassigned)
[1]
  half-life at 2 µM: 20 min
Hepatitis C virus [2]
  EC50: 0.23 µM
[3]
  half-life at 2 µM: 4 min
[4]
  CC50 at 144 h: > 100 µM
[5]
  half-life at 2 µM: 12 min
